According to US20210070748A1, “INHIBITORS OF BRUTONS TYROSINE KINASE” (Pharmacyclics LLC, priority 2015, published 2021):

Columns and labels:
Type in all cases: biochemical
BTK-WT = target: T1, BTK-WT (Homo sapiens, UniProt Q06187); test: Btk in vitro inhibitory activity (one of Method A TR-FRET, Method B electrophoretic mobility shift, Method C radiometric filter binding); conditions: D-compounds panel data; read-out: IC50 BTK-WT
T1 construct: purified from insect cells as a full-length construct containing an N-terminal 6X-His tag; His6 (N); made in house; host or cells: insect cells (baculovirus Sf21 in Method B)
T1 sequence (Q06187 whole entry): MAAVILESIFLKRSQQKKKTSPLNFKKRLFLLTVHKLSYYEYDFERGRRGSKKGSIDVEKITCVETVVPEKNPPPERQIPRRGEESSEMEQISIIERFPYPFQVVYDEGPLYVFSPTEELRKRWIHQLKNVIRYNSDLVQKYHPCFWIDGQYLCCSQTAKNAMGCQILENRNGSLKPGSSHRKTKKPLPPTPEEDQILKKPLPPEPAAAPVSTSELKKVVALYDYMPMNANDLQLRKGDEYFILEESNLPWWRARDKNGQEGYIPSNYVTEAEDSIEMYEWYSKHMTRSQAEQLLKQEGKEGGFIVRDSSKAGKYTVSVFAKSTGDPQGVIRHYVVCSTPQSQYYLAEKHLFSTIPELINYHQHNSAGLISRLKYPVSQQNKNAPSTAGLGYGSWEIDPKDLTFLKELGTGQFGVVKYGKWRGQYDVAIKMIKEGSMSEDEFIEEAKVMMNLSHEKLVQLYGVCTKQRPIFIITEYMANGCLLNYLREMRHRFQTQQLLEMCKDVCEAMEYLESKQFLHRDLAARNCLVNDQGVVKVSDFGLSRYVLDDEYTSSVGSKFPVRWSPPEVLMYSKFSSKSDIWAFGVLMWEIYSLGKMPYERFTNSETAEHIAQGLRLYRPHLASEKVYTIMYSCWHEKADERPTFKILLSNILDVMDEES

SRC = SRC (Homo sapiens, UniProt P12931); test: Inhibition of a panel of kinases, in vitro HotSpot kinase assay: SRC; conditions: D-compounds panel data; 1 μM ATP
Chain of SRC (P12931 whole entry): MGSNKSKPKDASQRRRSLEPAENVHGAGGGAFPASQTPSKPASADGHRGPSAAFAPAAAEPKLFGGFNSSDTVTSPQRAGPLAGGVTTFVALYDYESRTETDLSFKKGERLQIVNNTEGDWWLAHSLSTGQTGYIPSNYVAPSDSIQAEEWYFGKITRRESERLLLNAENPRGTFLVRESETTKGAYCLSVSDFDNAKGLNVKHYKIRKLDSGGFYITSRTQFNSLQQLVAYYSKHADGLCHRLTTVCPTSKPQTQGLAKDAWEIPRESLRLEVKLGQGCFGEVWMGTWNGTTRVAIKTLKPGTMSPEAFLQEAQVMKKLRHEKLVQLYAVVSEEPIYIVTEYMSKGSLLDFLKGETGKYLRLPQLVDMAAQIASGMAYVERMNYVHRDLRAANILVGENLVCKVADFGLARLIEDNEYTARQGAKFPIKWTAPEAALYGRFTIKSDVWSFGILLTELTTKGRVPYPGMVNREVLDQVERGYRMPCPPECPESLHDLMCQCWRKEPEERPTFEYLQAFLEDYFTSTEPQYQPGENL
Description: (§1) The degree of inhibition of a panel of kinases is determined using the in vitro HotSpot kinase assay (purified enzymes, ^33P-ATP, an appropriate substrate and 1 μM ATP).

LCK = LCK (Homo sapiens, UniProt P06239); test: Inhibition of a panel of kinases, in vitro HotSpot kinase assay: LCK; conditions: D-compounds panel data; 1 μM ATP; read-out: IC50 LCK
Chain of LCK (P06239 whole entry): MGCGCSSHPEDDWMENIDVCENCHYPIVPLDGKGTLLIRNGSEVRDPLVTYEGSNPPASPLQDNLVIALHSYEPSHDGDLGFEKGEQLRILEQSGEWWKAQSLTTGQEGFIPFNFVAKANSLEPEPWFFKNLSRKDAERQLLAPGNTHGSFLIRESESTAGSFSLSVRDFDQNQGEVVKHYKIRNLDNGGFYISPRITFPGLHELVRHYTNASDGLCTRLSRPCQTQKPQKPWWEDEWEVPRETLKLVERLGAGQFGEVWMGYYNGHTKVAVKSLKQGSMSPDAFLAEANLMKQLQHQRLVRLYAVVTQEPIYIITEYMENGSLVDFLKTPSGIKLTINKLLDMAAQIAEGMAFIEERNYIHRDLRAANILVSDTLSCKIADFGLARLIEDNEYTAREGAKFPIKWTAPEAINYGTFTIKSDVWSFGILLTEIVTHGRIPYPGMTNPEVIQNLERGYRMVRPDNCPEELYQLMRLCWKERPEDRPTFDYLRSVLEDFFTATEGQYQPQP

TEC = target: T2, TEC (Homo sapiens, UniProt P42680); test: Inhibition of a panel of kinases, in vitro HotSpot kinase assay: TEC; conditions: D-compounds panel data; 1 μM ATP
T2 sequence (P42680 1-631): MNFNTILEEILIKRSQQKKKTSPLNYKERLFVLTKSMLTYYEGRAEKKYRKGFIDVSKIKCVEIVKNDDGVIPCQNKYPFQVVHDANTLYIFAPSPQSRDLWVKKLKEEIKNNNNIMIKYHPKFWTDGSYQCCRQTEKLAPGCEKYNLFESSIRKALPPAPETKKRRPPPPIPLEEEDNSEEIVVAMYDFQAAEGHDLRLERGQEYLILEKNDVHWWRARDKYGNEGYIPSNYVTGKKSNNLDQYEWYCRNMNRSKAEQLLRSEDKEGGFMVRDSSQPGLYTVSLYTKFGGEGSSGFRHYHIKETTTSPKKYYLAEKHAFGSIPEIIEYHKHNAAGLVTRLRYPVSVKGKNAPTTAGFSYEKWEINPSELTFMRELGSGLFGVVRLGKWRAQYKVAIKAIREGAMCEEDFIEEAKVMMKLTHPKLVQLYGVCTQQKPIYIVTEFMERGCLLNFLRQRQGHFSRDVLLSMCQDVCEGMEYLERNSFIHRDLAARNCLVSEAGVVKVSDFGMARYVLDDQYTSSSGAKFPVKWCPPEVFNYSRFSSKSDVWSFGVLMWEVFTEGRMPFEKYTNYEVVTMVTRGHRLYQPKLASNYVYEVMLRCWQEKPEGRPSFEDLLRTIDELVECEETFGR
Description: as §1

ITK = target: T3, ITK (Homo sapiens, UniProt Q08881); test: Inhibition of a panel of kinases, in vitro HotSpot kinase assay: ITK; conditions: D-compounds panel data; 1 μM ATP
T3 sequence (Q08881 1-620): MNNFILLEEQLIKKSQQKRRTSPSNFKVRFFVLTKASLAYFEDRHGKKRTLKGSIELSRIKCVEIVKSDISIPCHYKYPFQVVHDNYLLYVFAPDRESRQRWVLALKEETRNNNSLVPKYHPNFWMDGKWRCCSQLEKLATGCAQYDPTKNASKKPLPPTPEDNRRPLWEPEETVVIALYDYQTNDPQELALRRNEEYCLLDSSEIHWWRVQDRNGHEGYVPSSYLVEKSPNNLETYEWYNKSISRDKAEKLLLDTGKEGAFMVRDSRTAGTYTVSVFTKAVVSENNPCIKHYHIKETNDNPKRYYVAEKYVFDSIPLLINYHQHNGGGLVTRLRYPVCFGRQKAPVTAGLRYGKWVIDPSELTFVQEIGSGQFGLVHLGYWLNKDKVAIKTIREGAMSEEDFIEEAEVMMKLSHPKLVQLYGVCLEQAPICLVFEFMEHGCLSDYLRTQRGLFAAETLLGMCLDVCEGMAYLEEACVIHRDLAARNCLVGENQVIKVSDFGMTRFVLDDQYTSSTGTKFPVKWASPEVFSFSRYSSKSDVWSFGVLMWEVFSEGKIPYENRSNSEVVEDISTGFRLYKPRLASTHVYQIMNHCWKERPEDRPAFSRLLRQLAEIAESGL
Description: as §1

Row | Structure (SMILES) | IC50 (BTK-WT) [nM] | IC50 (SRC) [nM] | IC50 (LCK) [nM] | IC50 (TEC) [nM] | IC50 (ITK) [nM]
1 | C[C@@H]1[C@H](NC(=O)c2ccc(C(O)C(F)(F)F)cc2)CCCN1c1cnc(C(N)=O)c(Nc2cnn(C)c2)n1 (single isomer, unassigned) [Example D-249] | ≤ 10 | 10 to 100 | 10 to 100 | ≤ 10 | 100 to 1000
2 | C[C@@H]1[C@H](NC(=O)c2ccc(C(O)C(F)(F)F)cc2)CCCN1c1cnc(C(N)=O)c(Nc2cnn(C)c2)n1 (single isomer, unassigned) [Example D-250] | ≤ 10 | 10 to 100 | 10 to 100 | ≤ 10 | 100 to 1000
3 | C[C@@H]1[C@H](NC(=O)c2ccc(C(C)(O)CO)cc2)CCCN1c1cnc(C(N)=O)c(Nc2cnn(C)c2)n1 (single isomer, unassigned) [Example D-256] | ≤ 10 | 10 to 100 | 10 to 100 | ≤ 10 | 100 to 1000
4 | C[C@@H]1[C@H](NC(=O)c2ccc(C(C)(O)CO)cc2)CCCN1c1cnc(C(N)=O)c(Nc2cnn(C)c2)n1 (single isomer, unassigned) [Example D-265] | ≤ 10 | 10 to 100 | 100 to 1000 | ≤ 10 | 100 to 1000
5 | C[C@@H]1[C@H](NC(=O)c2cc3c(n2C)CC(C)(C)C3)CCCN1c1cnc(C(N)=O)c(Nc2cnn(C)c2)n1 [Example D-19, 3-[(1-methyl-1H-pyrazol-4-yl)amino]-5-[(2R,3R)-2-methyl-3-{1,5,5-trimethyl-1H,4H,5H,6H-cyclopenta[b]pyrrole-2-amido}piperidin-1-yl]pyrazine-2-carboxamide] | ≤ 10 | 100 to 1000 | 100 to 1000 | 10 to 100 | 100 to 1000
6 | C[C@@H]1[C@H](NC(=O)c2ccc(C3CC3)cc2Cl)CCCN1c1cnc(C(N)=O)c(Nc2cnn(C)c2)n1 [Example D-20, 5-[(2R,3R)-3-(2-chloro-4-cyclopropylbenzamido)-2-methylpiperidin-1-yl]-3-[(1-methyl-1H-pyrazol-4-yl)amino]pyrazine-2-carboxamide] | ≤ 10 | 100 to 1000 | 100 to 1000 | 10 to 100 | 1000 to 10000
7 | C[C@@H]1[C@H](NC(=O)c2ccc(C3CC3)cn2)CCCN1c1cnc(C(N)=O)c(Nc2cnn(C)c2)n1 [Example D-21, 5-[(2R,3R)-3-(5-cyclopropylpyridine-2-amido)-2-methylpiperidin-1-yl]-3-[(1-methyl-1H-pyrazol-4-yl)amino]pyrazine-2-carboxamide] | ≤ 10 | 10 to 100 | 100 to 1000 | 10 to 100 | 100 to 1000
8 | C[C@@H]1[C@H](NC(=O)c2ccc(C(C)(C)C)cc2)CCCN1c1cnc(C(N)=O)c(Nc2cnn(C)c2)n1 [Example D-22, 5-[(2R,3R)-3-(4-tert-butylbenzamido)-2-methylpiperidin-1-yl]-3-[(1-methyl-1H-pyrazol-4-yl)amino]pyrazine-2-carboxamide] | ≤ 10 | 100 to 1000 | 1000 to 10000 | 10 to 100 | 1000 to 10000
9 | C[C@@H]1[C@H](NC(=O)c2ccc(C3COC3)cc2)CCCN1c1cnc(C(N)=O)c(Nc2cnn(C)c2)n1 [Example D-23, 3-[(1-methyl-1H-pyrazol-4-yl)amino]-5-[(2R,3R)-2-methyl-3-[4-(oxetan-3-yl)benzamido]piperidin-1-yl]pyrazine-2-carboxamide] | ≤ 10 | 10 to 100 | 100 to 1000 | ≤ 10 | 100 to 1000
10 | C[C@@H]1[C@H](NC(=O)c2ccc(N(C)C)cc2)CCCN1c1cnc(C(N)=O)c(Nc2cnn(C)c2)n1 [Example D-24, 5-[(2R,3R)-3-[4-(dimethylamino)benzamido]-2-methylpiperidin-1-yl]-3-[(1-methyl-1H-pyrazol-4-yl)amino]pyrazine-2-carboxamide] | ≤ 10 | 100 to 1000 | 10 to 100 | ≤ 10 | 100 to 1000
11 | C[C@@H]1[C@H](NC(=O)c2ccc(C3CC3)cc2C(F)(F)F)CCCN1c1cnc(C(N)=O)c(Nc2cnn(C)c2)n1 [Example D-25, 5-[(2R,3R)-3-[4-cyclopropyl-2-(trifluoromethyl)benzamido]-2-methylpiperidin-1-yl]-3-[(1-methyl-1H-pyrazol-4-yl)amino]pyrazine-2-carboxamide] | 10 to 100 | 100 to 1000 | 100 to 1000 | 10 to 100 | 1000 to 10000
12 | C[C@@H]1[C@H](NC(=O)c2ccc3ncsc3c2)CCCN1c1cnc(C(N)=O)c(Nc2cnn(C)c2)n1 [Example D-243, N-[(2R,3R)-1-{5-carbamoyl-6-[(1-methyl-1H-pyrazol-4-yl)amino]pyrazin-2-yl}-2-methylpiperidin-3-yl]-1,3-benzothiazole-6-carboxamide] | ≤ 10 | 10 to 100 | 10 to 100 | ≤ 10 | 100 to 1000
13 | C[C@@H]1[C@H](NC(=O)c2cc(C(C)(C)C)n[nH]2)CCCN1c1cnc(C(N)=O)c(Nc2cnn(C)c2)n1 [Example D-244, 5-[(2R,3R)-3-(3-tert-butyl-1H-pyrazole-5-amido)-2-methylpiperidin-1-yl]-3-[(1-methyl-1H-pyrazol-4-yl)amino]pyrazine-2-carboxamide] | ≤ 10 | 10 to 100 | 100 to 1000 | 10 to 100 | 100 to 1000
14 | C[C@@H]1[C@H](NC(=O)c2ccc(C3CC3)c(O)c2)CCCN1c1cnc(C(N)=O)c(Nc2cnn(C)c2)n1 [Example D-245, 5-[(2R,3R)-3-(4-cyclopropyl-3-hydroxybenzamido)-2-methylpiperidin-1-yl]-3-[(1-methyl-1H-pyrazol-4-yl)amino]pyrazine-2-carboxamide] | ≤ 10 | 10 to 100 | 100 to 1000 | ≤ 10 | 100 to 1000
15 | Cc1cc2cc(C(=O)N[C@@H]3CCCN(c4cnc(C(N)=O)c(Nc5cnn(C)c5)n4)[C@@H]3C)ccc2o1 [Example D-246, 3-[(1-methyl-1H-pyrazol-4-yl)amino]-5-[(2R,3R)-2-methyl-3-(2-methyl-1-benzofuran-5-amido)piperidin-1-yl]pyrazine-2-carboxamide] | ≤ 10 | 10 to 100 | 10 to 100 | ≤ 10 | 100 to 1000
16 | C[C@@H]1[C@H](NC(=O)c2cc(C(C)(C)C)on2)CCCN1c1cnc(C(N)=O)c(Nc2cnn(C)c2)n1 [Example D-247, 5-[(2R,3R)-3-(5-tert-butyl-1,2-oxazole-3-amido)-2-methylpiperidin-1-yl]-3-[(1-methyl-1H-pyrazol-4-yl)amino]pyrazine-2-carboxamide] | ≤ 10 | 100 to 1000 | 100 to 1000 | 10 to 100 | 100 to 1000
17 | COCCN(C)c1ccc(C(=O)N[C@@H]2CCCN(c3cnc(C(N)=O)c(Nc4cnn(C)c4)n3)[C@@H]2C)cc1 [Example D-248, 5-[(2R,3R)-3-{4-[(2-methoxyethyl)(methyl)amino]benzamido}-2-methylpiperidin-1-yl]-3-[(1-methyl-1H-pyrazol-4-yl)amino]pyrazine-2-carboxamide] | ≤ 10 | 10 to 100 | 10 to 100 | ≤ 10 | 100 to 1000
18 | C[C@@H]1[C@H](NC(=O)c2ccc(C(C)(C)F)cc2)CCCN1c1cnc(C(N)=O)c(Nc2cnn(C)c2)n1 [Example D-251, 5-[(2R,3R)-3-[4-(2-fluoropropan-2-yl)benzamido]-2-methylpiperidin-1-yl]-3-[(1-methyl-1H-pyrazol-4-yl)amino]pyrazine-2-carboxamide] | ≤ 10 | 10 to 100 | 10 to 100 | ≤ 10 | 100 to 1000
